Assay results published in US7053088B2, “Vanilloid receptor ligands and their use in treatments” (Amgen Inc., priority 2002, dated 2006).
Counter-ions that a name gives are not always drawn.

| melting point | SMILES |
| --- | --- |
| 194 to 196 °C | CC(C)(C)c1ccc(-c2cc(Nc3ccc4cc[nH]c4c3)ncn2)cc1 [Example 48] |
| 215 to 217 °C | COc1ccc(-c2nnc(Nc3ccc4cccnc4c3)cc2-c2ccc(C(F)(F)F)cc2)cc1 [Example 89, [6-(4-Methoxyphenyl)-5-(4-trifluoromethylphenyl)pyridazin-3-yl]-[quinolin-7-yl]amine] |
| > 250 °C | CC(=O)Nc1nc2c(Nc3cc(-c4ccc(C(F)(F)F)cc4)ncn3)cccc2s1 [N-{4-[6-(4-Trifluoromethylphenyl)pyrimidin-4-ylamino]benzothiazol-2-yl}acetamide] |
| 144 to 146 °C | Cc1ccc(Cl)cc1Nc1cc(-c2ccc(C(F)(F)F)cc2)ncn1 [Example 65] |
| 373 °C (dec.) | Cc1cc(O)nc2cc(Nc3cc(-c4ccc(C(F)(F)F)cc4)ncn3)ccc12.Cl [4-Methyl-7-{[6-(4-trifluoromethylphenyl)pyrimidin-4-yl]amino}quinolin-2-ol, hydrochloride] |
| 167 to 168 °C | FC(F)(F)c1ccc(-c2cc(Nc3ccc4c(c3)OCCO4)ncn2)cc1 [(2,3-dihydrobenzo[1,4]dioxin-6-yl)-[6-(4-trifluoromethylphenyl)pyrimidin-4-yl]amine] |
| 184 to 187 °C | COc1cccc(Nc2cc(-c3ccc(C(C)(C)C)cc3)ncn2)c1 [[6-(4-tert-butylphenyl)pyrimidin-4-yl]-(3-methoxyphenyl)amine] |
| 233 °C | FC(F)(F)c1ccc(-c2cc(Nc3ccc4ccc(Cl)nc4c3)ncn2)cc1 [(2-Chloroquinolin-7-yl)-[6-(4-trifluoromethylphenyl)pyrimidin-4-yl]amine] |
| 232 to 233 °C | FC(F)(F)c1ccc(-c2cc(Nc3cccc4ccccc34)ncn2)cc1 [Example 76] |
| 250 to 252 °C | CC(C)(C)c1ccc(-c2cc(Nc3ccc4nn[nH]c4c3)ncn2)cc1 [(3H-benzotriazol-5-yl)-[6-(4-tert-butylphenyl)pyrimidin-4-yl]amine] |
| 204 to 205 °C | CS(=O)(=O)c1cccc(Nc2cc(-c3ccc(C(F)(F)F)cc3)ncn2)c1 [(3-Methanesulfonylphenyl)-[6-(4-trifluoromethylphenyl)pyrimidin-4-yl]amine] |
| 199 to 202 °C | CC(C)(C)c1ccc(-c2cc(Nc3ccc4c(c3)OCCO4)ncn2)cc1 [[6-(4-tert-Butylphenyl)pyrimidin-4-yl]-(2,3-dihydrobenzo[1,4]dioxin-6-yl)amine] |
| 212 to 213 °C | FC(F)(F)c1ccc(-c2cc(Nc3ccc4ccccc4c3)ncn2)cc1 [Example 70] |
| 225 to 227 °C | Nc1nc2c(Nc3cc(-c4ccc(C(F)(F)F)cc4)ncn3)cccc2s1 [N^4-[6-(4-Trifluoromethylphenyl)pyrimidin-4-yl]benzothiazole-2,4-diamine] |
| 219.5 to 220.5 °C | Cc1nc2cc(Nc3cc(-c4ccc(C(F)(F)F)cc4)ncn3)ccc2s1 [(2-methylbenzothiazol-5-yl)-[6-(4-trifluoromethylphenyl)pyrimidin-4-yl]amine] |
| 220 to 222 °C | CC(C)(C)c1ccc(-c2cc(Nc3ccc4ncsc4c3)nc(N)n2)cc1.Cl [N^4-Benzothiazol-6-yl-6-(4-tert-butylphenyl)pyrimidine-2,4-diamine hydrochloride] |
| 138 to 140 °C | CC(C)(C)c1ccc(-c2cc(Nc3ccc4[nH]ccc4c3)nnc2-c2ccccc2)cc1 [[5-(4-tert-Butylphenyl)-6-phenyl-pyridazin-3-yl]-(1H-indol-5-yl)-amine] |
| 260 °C | FC(F)(F)c1ccc(-c2cc(Nc3ccc4cccnc4c3)ncn2)cc1 [Quinolyl-7-yl-[6-(4-trifluoromethylphenyl)pyrimidin-4-yl]amine] |
| 178 to 180 °C | FC(F)(F)c1ccc(-c2cc(Nc3ccc(Cl)c(Cl)c3)ncn2)cc1 [(3,4-dichlorophenyl)-[6-(4-trifluoromethylphenyl)pyrimidin-4-yl]amine] |
| 227 to 229 °C | CC(C)(C)c1ccc(-c2cc(Nc3cnc4ccccc4c3)ncn2)cc1 [Example 47] |
| 134 to 135 °C | FC(F)(F)c1ccc(-c2cc(Nc3cccnc3Cl)ncn2)cc1 [(2-chloropyridin-3-yl)-[6-(4-trifluoromethylphenyl)pyrimidin-4-ylamine] |
| 162 to 163 °C | FC(F)(F)c1ccc(-c2cc(Nc3cccc4cccnc34)ncn2)cc1 [Example 73] |
| 130 to 132 °C | CSc1cccc(Nc2cc(-c3ccc(C(F)(F)F)cc3)ncn2)c1 [(3-methylsulfanylphenyl)-[6-(4-trifluoromethylphenyl)pyrimidin-4-yl]amine] |
| 184 to 186 °C | FC(F)(F)c1ccc(-c2cc(Nc3ccccc3)ncn2)cc1 [phenyl-[6-(4-trifluoromethylphenyl)pyrimidin-4-yl]amine] |
| 192.1 to 192.2 °C | FC(F)(F)c1ccc(-c2cc(Nc3ccc4scnc4c3)ncn2)cc1 [Benzothiazol-5-yl-[6-(4-trifluoromethylphenyl)pyrimidin-4-yl]amine] |
| 222 to 224 °C | FC(F)(F)c1ccc(-c2cc(Nc3cccc4[nH]ccc34)ncn2)cc1 [Example 43] |

| melting point | SMILES |
| --- | --- |
| 269 °C | Fc1ccc(-c2nnc(Nc3ccc4ncsc4c3)cc2-c2ccc(C(F)(F)F)cc2)cc1 [benzothiazol-6-yl-[6-(4-fluorophenyl)-5-(4-trifluoromethylphenyl)pyridazin-3-yl]amine] |
| 221 to 223 °C | OCc1cc2cccc(Nc3cc(-c4ccc(C(F)(F)F)cc4)ncn3)c2[nH]1 [{7-[6-(4-Trifluoromethylphenyl)pyrimidin-4-ylamino]-1H-indol-2-yl}methanol] |
| 189.5 to 190.5 °C | OCCOc1ccc(Nc2cc(-c3ccc(C(F)(F)F)cc3)ncn2)cn1 [2-{5-[6-(4-Trifluoromethylphenyl)pyrimidin-4-ylamino]pyridin-2-yloxy}ethanol] |
| 203.1 to 203.2 °C | Nc1cc(C(F)(F)F)ccc1-c1cc(Nc2ccc3ncsc3c2)ncn1 [[6-(2-Amino-4-trifluoromethylphenyl)pyrimidin-4-yl]benzothiazol-6-ylamine] |
| 268 to 269 °C | FC(F)(F)c1ccc(-c2cc(Nc3ccc4ncccc4c3)ncn2)cc1 [Example 72] |
| 231 to 232 °C | FC(F)(F)c1ccc(-c2cc(Nc3ccc4cc[nH]c4c3)ncn2)cc1 [Example 42] |
| 230 to 232 °C | CC(C)(C)c1ccc(-c2cc(Nc3ccc4c(c3)CCCC4=O)ncn2)cc1 [6-[6-(4-tert-butylphenyl)pyrimidin-4-ylamino]-3,4-dihydro-2H-naphthalen-1-one] |
| 154 to 156 °C | Cc1ccc(Nc2cc(-c3ccc(C(F)(F)F)cc3)ncn2)cc1C [(3,4-dimethylphenyl)-[6-(4-trifluoromethylphenyl)pyrimidin-4-yl]amine] |
| 117 to 119 °C | Cc1ccccc1Nc1cc(-c2ccc(C(F)(F)F)cc2)ncn1 [Example 64] |
| 159 to 160 °C | Cc1ccc(Nc2cc(-c3ccc(C(F)(F)F)cc3)ncn2)cc1 [Example 60] |
| 123 to 127 °C | COc1ccc(Nc2cc(-c3ccc(C(F)(F)F)cc3)ncn2)cn1 [(6-methoxypyridin-3-yl)-[6-(4-trifluoromethylphenyl)pyrimidin-4-yl]amine] |
| 227 to 230 °C | CC(=O)N1CC(C)(C)c2ccc(Nc3cc(-c4ccc(C(F)(F)F)cc4)ncn3)cc21 [1-{3,3-Dimethyl-6-[6-(4-trifluoromethylphenyl)pyrimidin-4-ylamino]-2,3-dihydroindol-1-yl}ethanone] |
| 236 to 238 °C | CC(=O)Nc1ccc(Nc2cc(-c3ccc(C(F)(F)F)cc3)ncn2)cc1 [Example 66] |
| 240 °C | FC(F)(F)c1ccc(-c2cc(Nc3cccc4ccc(Cl)nc34)ncn2)cc1 [(2-Chloroquinolin-8-yl)-[6-(4-trifluoromethylphenyl)pyrimidin-4-yl]amine] |
| 243 °C | FC(F)(F)c1ccc(-c2cc(Nc3ccc4ncsc4c3)nnc2-c2ccc(C(F)(F)F)cc2)cc1 [benzothiazol-6-yl-[5,6-bis-(4-trifluoromethylphenyl)pyridazin-3-yl]amine] |
| 221 to 224 °C | CC(C)(C)c1ccc(-c2cc(Nc3ccc4c(c3)OCCO4)nc(N)n2)cc1 (as salt: hydrochloride) [[2-Amino-6-(4-tert-butylphenyl)pyrimidin-4-yl]-(2,3-dihydrobenzo[1,4]-dioxin-6-yl)amine hydrochloride] |
| 199 °C | COc1ccc2ccc(Nc3cc(-c4ccc(C(F)(F)F)cc4)ncn3)cc2n1 [(2-Methoxyquinolin-7-yl)-[6-(4-trifluoromethylphenyl)pyrimidin-4-yl]amine] |
| 148 to 150 °C | Cc1c(Cl)cccc1Nc1cc(-c2ccc(C(F)(F)F)cc2)ncn1 [Example 57] |
| 241 to 242 °C | CC(C)(C)c1ccc(-c2cc(Nc3cccc4[nH]ccc34)ncn2)cc1 [Example 46] |
| 166 °C | CC(C)(C)c1ccc(-c2cc(Nc3ccccc3)ncn2)cc1 [[6-(4-tert-butylphenyl)pyrimidin-4-yl]phenylamine] |
| 172 to 175 °C | FC(F)(F)c1ccc(-c2cc(Nc3ccc(Cl)c(C(F)(F)F)c3)ncn2)cc1 [(4-chloro-3-trifluoromethylphenyl)-[6-(4-trifluoromethylphenyl)pyrimidin-4-yl]amine] |
| 293 to 295 °C | CC(C)(C)c1ccc(-c2cc(Nc3ccc4ncsc4c3)nnc2-c2ccccc2)cc1 [Benzothiazol-6-yl-[5-(4-tert-butylphenyl)-6-phenylpyridazin-3-yl]amine] |
| 237 °C | CC(C)(C)c1ccc(-c2cc(Nc3ccc4ncsc4c3)ncn2)cc1 [benzothiazol-6-yl-[6-(4-tert-butylphenyl)pyrimidin-4-yl]amine] |
| 206.3 °C (dec.) | FC(F)(F)c1ccc(-c2cc(Nc3ccc4ncsc4c3)nnc2Cl)cc1 [Benzothiazol-6-yl-[6-chloro-5-(4-trifluoromethylphenyl)pyridazin-3-yl]amine] |
| 337 °C (dec.) | Oc1ccc2ccc(Nc3cc(-c4ccc(C(F)(F)F)cc4)ncn3)cc2n1 [7-[6-(4-Trifluoromethylphenyl)pyrimidin-4-ylamino]quinolin-2-ol] |
| 168 °C | FC(F)(F)c1ccc(-c2cc(Nc3ccc4c(n3)NCCC4)ncn2)cc1 [(5,6,7,8-tetrahydro[1,8]naphthyridin-2-yl)-[6-(4-trifluoromethylphenyl)pyrimidin-4-yl]amine] |
